The results in this text go back to ChEMBL document CHEMBL3621112, “Computationally motivated synthesis and enzyme kinetic evaluation of N-(-d-glucopyranosyl)-1,2,4-triazolecarboxamides as glycogen phosphorylase inhibitors” (Medchemcomm, 2015).

In test [1] the target is T1, Glycogen phosphorylase, muscle form (Oryctolagus cuniculus, UniProt P00489).
T1 sequence (P00489 whole entry): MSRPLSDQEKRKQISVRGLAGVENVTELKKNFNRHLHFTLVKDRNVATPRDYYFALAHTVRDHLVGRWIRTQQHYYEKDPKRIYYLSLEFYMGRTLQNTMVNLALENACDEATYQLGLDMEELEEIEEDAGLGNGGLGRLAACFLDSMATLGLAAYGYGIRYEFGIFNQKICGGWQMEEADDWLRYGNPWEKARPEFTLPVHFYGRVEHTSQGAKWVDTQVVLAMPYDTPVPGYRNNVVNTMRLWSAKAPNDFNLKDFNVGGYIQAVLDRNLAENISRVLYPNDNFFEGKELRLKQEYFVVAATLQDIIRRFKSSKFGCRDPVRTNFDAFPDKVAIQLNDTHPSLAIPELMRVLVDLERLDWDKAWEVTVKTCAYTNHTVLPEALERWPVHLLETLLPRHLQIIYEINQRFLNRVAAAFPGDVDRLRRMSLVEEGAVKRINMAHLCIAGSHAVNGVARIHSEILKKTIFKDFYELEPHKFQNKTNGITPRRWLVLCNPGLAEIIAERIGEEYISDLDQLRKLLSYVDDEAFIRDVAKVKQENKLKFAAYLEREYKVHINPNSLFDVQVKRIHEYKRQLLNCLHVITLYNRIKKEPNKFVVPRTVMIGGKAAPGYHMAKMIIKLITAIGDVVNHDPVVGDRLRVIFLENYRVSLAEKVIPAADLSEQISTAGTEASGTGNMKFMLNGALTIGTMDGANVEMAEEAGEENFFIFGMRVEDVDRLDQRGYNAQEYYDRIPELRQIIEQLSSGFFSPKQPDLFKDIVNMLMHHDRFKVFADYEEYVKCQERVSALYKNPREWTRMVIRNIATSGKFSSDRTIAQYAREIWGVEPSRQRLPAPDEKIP
In words: Inhibition of glycogen phosphorylase b in rabbit skeletal muscle using glycogen substrate and glucose-1-phosphate by Lineweaver-Burk plot method.

A short description of test [2]: Inhibition of glycogen phosphorylase (unknown origin). On the set-up: species or system Homo sapiens.

Molecules are shown by their SMILES.

The term Ki denotes the equilibrium dissociation constant of an inhibitor or competing ligand from its target.

Turning to `O=C(N[C@@H]1O[C@H](CO)[C@@H](O)[C@H](O)[C@H]1O)c1noc(-c2ccc3ccccc3c2)n1`, the Ki entry in test [1] is recorded as “Not Active”.
In the case of `O=C(N[C@@H]1O[C@H](CO)[C@@H](O)[C@H](O)[C@H]1O)c1nc(-c2ccc3ccccc3c2)no1`, the Ki result in test [1] was “Not Active”.
On to `O=C(N[C@@H]1O[C@H](CO)[C@@H](O)[C@H](O)[C@H]1O)c1nnc(-c2ccccc2)[nH]1`, for which, in test [1] (read-out: Ki), the Ki was determined as 1 µM.
Still for that read-out and setting: as for `O=C(N[C@@H]1O[C@H](CO)[C@@H](O)[C@H](O)[C@H]1O)c1nnc(-c2ccc3ccccc3c2)[nH]1`, the figure is 9.2 µM.
With `OC[C@H]1O[C@H](O)[C@H](O)[C@@H](O)[C@@H]1O`, in test [2], the affinity corresponds to a Ki of […].
On the same count and under the same terms, as for `O=C(NC(=O)c1ccc2ccccc2c1)N[C@@H]1O[C@H](CO)[C@@H](O)[C@H](O)[C@H]1O`, the figure is 0.35 µM.
